The assay relates to IgG from human donors (anti-AAV antibodies). Kind of assay: Screen for anti-AAV antibodies in human sera, 2452 linear 15-amino-acid AAV peptides on microarrays (Table 1). The class given is binding. Also on record: key to group II: X: the deduplicated aggregate of the respective top 25 peptide hits for each donor was compiled and designated as group II; key to group III: X: the deduplicated aggregate of the respective top 50 peptide hits for each donor was compiled and designated as group III. The conditions noted are these: linear 15-amino-acid AAV peptides, IgG binding by fluorescence; for group II: X = peptide belongs to the deduplicated aggregate of the top 25 peptide hits for each donor; for group III: X = peptide belongs to the deduplicated aggregate of the top 50 peptide hits for each donor. The protocol:
2452 linear peptides derived from the sequences of 16 different AAVs and with a sequence length of 15 amino-acids each were synthesized.
Samples obtained from human donors were screened for antibodies against these AAV-derived peptides immobilized on microarrays. To this end, IgG was prepared from blood obtained from the human donors by protein G purification. Each IgG sample was incubated with the peptide microarrays and Ig binding signals were detected by fluorescence. All antibody binding signals to the peptides on the arrays were background subtracted and ranked for each sample and a deduplicated aggregate of the respective top 250 peptide hits for each donor with the corresponding protein sequence of origin (as obtained from UniProt or other sources) was compiled (designated as group IV). Further, the deduplicated aggregate of the respective top 50 peptide hits for each donor was compiled and designated as group III. Further, the deduplicated aggregate of the respective top 25 peptide hits for each donor was compiled and designated as group II. Finally, the deduplicated aggregate of the respective top 10 peptide hits for each donor was compiled and designated as group I.
Altogether, group I contains 110 distinct peptide hits (assigned to the corresponding AAV vectors in Table 1), group II contains 289 distinct peptide hits, group III contains 428 distinct peptide hits and group IV contains 1271 distinct peptide hits. Evidently, group I is a subset of group II which in turn is a subset of group III which in turn is a subset of group IV. Groups I-IV correspond to the top 4.4%, […], 17.5% and 51.8%, respectively, of all peptides screened.

Turning to “281 (SKPSTSSDAEAGPSG; REGION 1..15: note = peptide derived from viral capsid protein) [compound 281]”, the “group II” value was “X” and the “group III” value is on record as “X”.
As for “282 (FITQYSTGQVTVEME; REGION 1..15: note = peptide derived from viral capsid protein) [compound 282]”, the “group II” value is on record as “X” and the “group III” value is given as “X”.
Turning to “283 (EFLGLEAGPPKPKPN; REGION 1..15: note = peptide derived from viral capsid protein) [compound 283]”, the “group II” value is “X” and the “group III” value is reported as “X”.
Take “284 (NVGGQMATNNQSSTT; REGION 1..15: note = peptide derived from viral capsid protein) [compound 284]”: the “group II” value is “X” and the “group III” value is on record as “X”.
Take “285 (PSKMLRTGNNFEFTY; REGION 1..15: note = peptide derived from viral capsid protein) [compound 285]”: the “group II” value was “X” and the “group III” value is on record as “X”.
For “286 (VLEPFGLVEEGAKTA; REGION 1..15: note = peptide derived from viral capsid protein) [compound 286]”, the “group II” value is given as “X” and the “group III” value is listed as “X”.
On to “287 (AQPASSLGADTMSAG; REGION 1..15: note = peptide derived from viral capsid protein) [compound 287]”, for which the “group II” value is “X” and the “group III” value was “X”.
For the substance “288 (VQDSTTTIANNLTST; REGION 1..15: note = peptide derived from viral capsid protein) [compound 288]”, the “group II” value is listed as “X” and the “group III” value is recorded as “X”.
For the substance “289 (YLEGNMLITSESETQ; REGION 1..15: note = peptide derived from viral capsid protein) [compound 289]”, the “group II” value is on record as “X” and the “group III” value was “X”.
As to “290 (NVDFAVNTDGTYSEP; REGION 1..15: note = peptide derived from viral capsid protein) [compound 290]”, the “group III” value is reported as “X”.
The same measure, in the same setting: to “291 (KDNVDYSSVMLTSEE; REGION 1..15: note = peptide derived from viral capsid protein) [compound 291]” belongs “X”.
With “292 (HDDEERFFPSSGVLM; REGION 1..15: note = peptide derived from viral capsid protein) [compound 292]”, the “group III” value is recorded as “X”.
Consider “293 (SQMLRTGNFEFSYFE; REGION 1..15: note = peptide derived from viral capsid protein) [compound 293]”, for which the “group III” value is on record as “X”.
For the substance “294 (GDSESVPDPQPIGEP; REGION 1..15: note = peptide derived from viral capsid protein) [compound 294]”, the “group III” value is listed as “X”.
On to “295 (DNPYLRYHADAEFQE; REGION 1..15: note = peptide derived from viral capsid protein) [compound 295]”, for which the “group III” value is “X”.
For the substance “296 (NTPVPADPPTTFNQA; REGION 1..15: note = peptide derived from viral capsid protein) [compound 296]”, the “group III” value is on record as “X”.
For “297 (DSLVNPGVAMATHDD; REGION 1..15: note = peptide derived from viral capsid protein) [compound 297]”, the “group III” value is recorded as “X”.
On the same count and under the same terms, to “298 (PLGLVESPVKTAPGK; REGION 1..15: note = peptide derived from viral capsid protein) [compound 298]” belongs “X”.
As for “299 (SRTQSTGGTAGTQQL; REGION 1..15: note = peptide derived from viral capsid protein) [compound 299]”, the “group III” value is listed as “X”.
In the case of “300 (TFNQAKLASFITQYS; REGION 1..15: note = peptide derived from viral capsid protein) [compound 300]”, the “group III” value is recorded as “X”.
As to “301 (STTLSQNNNSNFAWT; REGION 1..15: note = peptide derived from viral capsid protein) [compound 301]”, the “group III” value was “×”.
With “311 (QGVLPGMVWQDRDVY; REGION 1..15: note = peptide derived from viral capsid protein) [compound 311]”, the “group III” value was “X”.
In the case of “312 (NEADAAALEHDKAYD; REGION 1..15: note = peptide derived from viral capsid protein) [compound 312]”, the “group III” value is on record as “X”.
“313 (QGCLPPFPADVFMVP; REGION 1..15: note = peptide derived from viral capsid protein) [compound 313]”: the “group III” value was “X”.
For the substance “314 (EHDKAYDRQLDSGDN; REGION 1..15: note = peptide derived from viral capsid protein) [compound 314]”, the “group III” value is listed as “X”.
As to “315 (PFPADVFMVPQYGYL; REGION 1..15: note = peptide derived from viral capsid protein) [compound 315]”, the “group III” value is given as “X”.
With “316 (EPVKTAPGKKRPVEH; REGION 1..15: note = peptide derived from viral capsid protein) [compound 316]”, the “group III” value is given as “X”.
For “317 (HKDDEEKFFPQSGVL; REGION 1..15: note = peptide derived from viral capsid protein) [compound 317]”, the “group III” value is “X”.
For the substance “318 (DKGEPVNEADAAALE; REGION 1..15: note = peptide derived from viral capsid protein) [compound 318]”, the “group III” value is reported as “X”.
Consider “319 (EQYGSVSTNLQRGNR; REGION 1..15: note = peptide derived from viral capsid protein) [compound 319]”, for which the “group III” value is given as “X”.
As to “320 (GPPPPKPAERHKDDS; REGION 1..15: note = peptide derived from viral capsid protein) [compound 320]”, the “group III” value is “X”.
In the case of “321 (IEKVMITDEEEIRTT; REGION 1..15: note = peptide derived from viral capsid protein) [compound 321]”, the “group III” value is “X”.
Regarding “322 (KSVNVDFTVDTNGVY; REGION 1..15: note = peptide derived from viral capsid protein) [compound 322]”, the “group III” value is on record as “X”.
Consider “323 (RPVEHSPVEPDSSSG; REGION 1..15: note = peptide derived from viral capsid protein) [compound 323]”, for which the “group III” value is “X”.
In the case of “324 (SDIRDQSRNWLPGPC; REGION 1..15: note = peptide derived from viral capsid protein) [compound 324]”, the “group III” value is “X”.
As for “325 (DNNEGADGVGNSSGN; REGION 1..15: note = peptide derived from viral capsid protein) [compound 325]”, the “group III” value was “X”.
With “326 (PVATEQYGSVSTNLQ; REGION 1..15: note = peptide derived from viral capsid protein) [compound 326]”, the “group III” value is reported as “X”.
Consider “327 (QVKEVTQNDGTTTIA; REGION 1..15: note = peptide derived from viral capsid protein) [compound 327]”, for which the “group III” value is listed as “X”.
With “328 (STVQVFTDSEYQLPY; REGION 1..15: note = peptide derived from viral capsid protein) [compound 328]”, the “group III” value is listed as “X”.
Turning to “329 (DADSVPDPQPLGQPP; REGION 1..15: note = peptide derived from viral capsid protein) [compound 329]”, the “group III” value is listed as “X”.
On to “330 (DSGDNPYLKYNHADA; REGION 1..15: note = peptide derived from viral capsid protein) [compound 330]”, for which the “group III” value is “X”.
Regarding “331 (DSLVNPGPAMASHKD; REGION 1..15: note = peptide derived from viral capsid protein) [compound 331]”, the “group III” value is given as “X”.
Regarding “332 (ISSQSGASNDNHYFG; REGION 1..15: note = peptide derived from viral capsid protein) [compound 332]”, the “group III” value is listed as “X”.
Take “333 (MITDEEEIRTTNPVA; REGION 1..15: note = peptide derived from viral capsid protein) [compound 333]”: the “group III” value is “X”.
Same read-out and setting: to “334 (RQWWKLKPGPPPPKP; REGION 1..15: note = peptide derived from viral capsid protein) [compound 334]” belongs “X”.

Values taken from US20250213707A1, “COMPOUND FOR INCREASING EFFICACY OF ONCOLYTIC VIRUSES” (ABLEVIA BIOTECH GMBH, priority 2022, published 2025).
